Experimental data taken from ChEMBL document CHEMBL6083210, “Exploring apoptotic induction of malabaricone A in triple-negative breast cancer cells: an acylphenol phyto-entity isolated from the fruit rind of Myristica malabarica Lam” (RSC Med Chem, 2024).

Tests used:
Assay type in all cases: functional, cell-based
SK-BR-3 = assay: Antiproliferative activity against human SK-BR-3 cells assessed as reduction in cell viability incubated for 24 hrs by MTT assay; conditions: SK-BR-3, 24 h
MCF-10A = assay: Antiproliferative activity against human MCF-10A cells assessed as reduction in cell viability incubated for 24 hrs by MTT assay
MDA-MB-231 = assay: Antiproliferative activity against human MDA-MB-231 cells assessed as reduction in cell viability incubated for 24 hrs by MTT assay; conditions: MDA-MB-231, 24 h

Row | IC50 (SK-BR-3) | IC50 (MDA-MB-231) | SMILES | IC50 (MCF-10A)
1 | 9.3 µM | 15.1 µM | O=C(CCCCCCCCc1ccc2c(c1)OCO2)c1c(O)cccc1O | 82.6 µM
2 | > 50 µM | 20.8 µM | COc1cccc2c1C(=O)c1c(O)c3c(c(O)c1C2=O)C[C@@](O)(C(=O)CO)C[C@@H]3O[C@H]1C[C@H](N)[C@H](O)[C@H](C)O1 [DOXORUBICIN] | 35.2 µM
